From ChEMBL document CHEMBL4507277

Key:
[1] = molecular target: Insulin receptor-related protein (Homo sapiens) (UniProt P14616); settings: Compound concentration 1000.0 nM
[2] = molecular target: Epithelial discoidin domain-containing receptor 1 (Homo sapiens) (UniProt Q08345); settings: Compound concentration 1000.0 nM
[3] = molecular target: RAF proto-oncogene serine/threonine-protein kinase (Homo sapiens) (UniProt P04049); settings: Compound concentration 1000.0 nM
[4] = molecular target: Protein-tyrosine kinase 2-beta (Homo sapiens) (UniProt Q14289); settings: Compound concentration 1000.0 nM
[5] = molecular target: Mitogen-activated protein kinase kinase kinase kinase 1 (Homo sapiens) (UniProt Q92918); settings: Compound concentration 1000.0 nM
[6] = molecular target: Aurora kinase B (Homo sapiens) (UniProt Q96GD4); settings: Compound concentration 1000.0 nM
[7] = molecular target: Mitogen-activated protein kinase kinase kinase kinase 2 (Homo sapiens) (UniProt Q12851); settings: Compound concentration 1000.0 nM
[8] = molecular target: cGMP-dependent protein kinase 2 (Homo sapiens) (UniProt Q13237); settings: Compound concentration 1000.0 nM
[9] = molecular target: MAP/microtubule affinity-regulating kinase 4 (Homo sapiens) (UniProt Q96L34); settings: Compound concentration 1000.0 nM
[10] = molecular target: Serine/threonine-protein kinase MRCK alpha (Homo sapiens) (UniProt Q5VT25); settings: Compound concentration 1000.0 nM
[11] = molecular target: cAMP-dependent protein kinase catalytic subunit alpha (Homo sapiens) (UniProt P17612); settings: Compound concentration 1000.0 nM
[12] = molecular target: Cyclin-dependent kinase-like 1 (Homo sapiens) (UniProt Q00532); settings: Compound concentration 1000.0 nM
[13] = molecular target: Glycogen synthase kinase-3 alpha (Homo sapiens) (UniProt P49840); settings: Compound concentration 1000.0 nM
[14] = molecular target: Kappa-type opioid receptor (Homo sapiens) (UniProt P41145); settings: Compound concentration 10.0 uM
[15] = molecular target: Muscarinic acetylcholine receptor M2 (Homo sapiens) (UniProt P08172); settings: Compound concentration 10.0 uM
[16] = molecular target: Inhibitor of nuclear factor kappa-B kinase subunit beta (Homo sapiens) (UniProt O14920); settings: Compound concentration 1000.0 nM
[17] = molecular target: Phosphatidylinositol 5-phosphate 4-kinase type-2 beta (Homo sapiens) (UniProt P78356); settings: Compound concentration 1000.0 nM
[18] = tested on: Epidermal growth factor receptor (Homo sapiens), P00533 [G719S]; settings: Compound concentration 1000.0 nM
[19] = molecular target: Serine/threonine-protein kinase PLK2 (Homo sapiens) (UniProt Q9NYY3); settings: Compound concentration 1000.0 nM
[20] = molecular target: Serine/threonine-protein kinase Nek3 (Homo sapiens) (UniProt P51956); settings: Compound concentration 1000.0 nM
[21] = molecular target: Vascular endothelial growth factor receptor 2 (Homo sapiens) (UniProt P35968); settings: Compound concentration 1000.0 nM
[22] = tested on: Epidermal growth factor receptor (Homo sapiens), P00533 [UNDEFINED MUTATION]; settings: Compound concentration 1000.0 nM
[23] = molecular target: Calcium-dependent protein kinase 1 (Plasmodium falciparum) (UniProt P62344); settings: Compound concentration 1000.0 nM
[24] = molecular target: Serine/threonine-protein kinase OSR1 (Homo sapiens) (UniProt O95747); settings: Compound concentration 1000.0 nM
[25] = molecular target: Protein kinase C epsilon type (Homo sapiens) (UniProt Q02156); settings: Compound concentration 1000.0 nM
[26] = molecular target: Non-receptor tyrosine-protein kinase TYK2 (Homo sapiens) (UniProt P29597); settings: Compound concentration 1000.0 nM
[27] = molecular target: MAP kinase-interacting serine/threonine-protein kinase 1 (Homo sapiens) (UniProt Q9BUB5); settings: Compound concentration 1000.0 nM
[28] = molecular target: Tyrosine-protein kinase Yes (Homo sapiens) (UniProt P07947); settings: Compound concentration 1000.0 nM
[29] = molecular target: Serine/threonine-protein kinase 32A (Homo sapiens) (UniProt Q8WU08); settings: Compound concentration 1000.0 nM
[30] = molecular target: Inhibitor of nuclear factor kappa-B kinase subunit epsilon (Homo sapiens) (UniProt Q14164); settings: Compound concentration 1000.0 nM
[31] = molecular target: Leucine-rich repeat serine/threonine-protein kinase 2 (Homo sapiens) (UniProt Q5S007); settings: Compound concentration 1000.0 nM
[32] = tested on: Epidermal growth factor receptor (Homo sapiens), P00533 [G719C]; settings: Compound concentration 1000.0 nM
[33] = molecular target: cAMP-dependent protein kinase catalytic subunit PRKX (Homo sapiens) (UniProt P51817); settings: Compound concentration 1000.0 nM
[34] = molecular target: Vascular endothelial growth factor receptor 1 (Homo sapiens) (UniProt P17948); settings: Compound concentration 1000.0 nM
[35] = molecular target: Peripheral plasma membrane protein CASK (Homo sapiens) (UniProt O14936); settings: Compound concentration 1000.0 nM
[36] = molecular target: Serine/threonine-protein kinase PAK 5 (Homo sapiens) (UniProt Q9P286); settings: Compound concentration 1000.0 nM
[37] = molecular target: Beta-3 adrenergic receptor (Homo sapiens) (UniProt P13945); settings: Compound concentration 10.0 uM
[38] = molecular target: Microtubule-associated serine/threonine-protein kinase 1 (Homo sapiens) (UniProt Q9Y2H9); settings: Compound concentration 1000.0 nM
[39] = molecular target: Protein kinase C iota type (Homo sapiens) (UniProt P41743); settings: Compound concentration 1000.0 nM
[40] = molecular target: Rho-associated protein kinase 2 (Homo sapiens) (UniProt O75116); settings: Compound concentration 1000.0 nM
[41] = molecular target: Atypical kinase COQ8A, mitochondrial (Homo sapiens) (UniProt Q8NI60); settings: Compound concentration 1000.0 nM
[42] = molecular target: Non-receptor tyrosine-protein kinase TYK2 (Homo sapiens) (UniProt P29597); settings: Compound concentration 1000.0 nM; remark: listed apart in the source
[43] = molecular target: Phosphatidylinositol 4,5-bisphosphate 3-kinase catalytic subunit gamma isoform (Homo sapiens) (UniProt P48736); settings: Compound concentration 1000.0 nM
[44] = molecular target: Homeodomain-interacting protein kinase 1 (Homo sapiens) (UniProt Q86Z02); settings: Compound concentration 1000.0 nM
[45] = tested on: Tyrosine-protein kinase ABL1 (Homo sapiens), P00519 [T315I]; settings: Compound concentration 1000.0 nM

Chain of Non-receptor tyrosine-protein kinase TYK2 (Homo sapiens) (P29597 whole entry, canonical isoform): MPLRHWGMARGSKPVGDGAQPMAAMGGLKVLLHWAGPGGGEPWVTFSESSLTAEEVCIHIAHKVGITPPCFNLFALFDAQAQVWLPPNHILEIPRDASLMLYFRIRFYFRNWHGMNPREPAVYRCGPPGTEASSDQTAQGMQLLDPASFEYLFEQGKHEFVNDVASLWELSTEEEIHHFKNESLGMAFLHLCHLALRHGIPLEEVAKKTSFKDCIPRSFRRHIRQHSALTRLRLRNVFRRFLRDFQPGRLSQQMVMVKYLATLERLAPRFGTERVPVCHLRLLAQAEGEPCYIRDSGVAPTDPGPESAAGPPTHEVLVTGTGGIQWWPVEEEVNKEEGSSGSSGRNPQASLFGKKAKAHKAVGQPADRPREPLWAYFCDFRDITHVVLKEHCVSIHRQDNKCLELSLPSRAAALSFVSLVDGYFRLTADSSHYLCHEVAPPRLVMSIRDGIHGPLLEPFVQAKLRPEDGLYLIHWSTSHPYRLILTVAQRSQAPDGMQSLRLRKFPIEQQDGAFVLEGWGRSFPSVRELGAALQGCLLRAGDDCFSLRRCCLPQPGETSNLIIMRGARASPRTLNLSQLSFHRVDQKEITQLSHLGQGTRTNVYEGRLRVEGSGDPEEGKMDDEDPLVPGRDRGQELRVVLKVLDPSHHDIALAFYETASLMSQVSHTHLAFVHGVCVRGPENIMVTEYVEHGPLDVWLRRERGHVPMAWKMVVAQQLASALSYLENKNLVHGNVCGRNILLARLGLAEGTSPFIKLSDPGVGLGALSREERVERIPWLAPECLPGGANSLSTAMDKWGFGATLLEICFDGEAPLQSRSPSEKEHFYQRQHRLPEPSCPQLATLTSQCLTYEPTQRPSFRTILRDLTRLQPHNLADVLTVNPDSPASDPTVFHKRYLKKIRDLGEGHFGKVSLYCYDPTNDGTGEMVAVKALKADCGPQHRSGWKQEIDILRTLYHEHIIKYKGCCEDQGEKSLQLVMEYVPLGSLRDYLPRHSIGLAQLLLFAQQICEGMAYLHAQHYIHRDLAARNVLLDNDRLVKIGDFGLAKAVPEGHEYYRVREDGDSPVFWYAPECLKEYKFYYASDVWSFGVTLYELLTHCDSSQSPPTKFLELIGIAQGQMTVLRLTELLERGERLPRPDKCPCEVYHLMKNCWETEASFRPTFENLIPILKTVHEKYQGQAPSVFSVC
Chain of Atypical kinase COQ8A, mitochondrial (Homo sapiens) (Q8NI60 163-647 limits assumed): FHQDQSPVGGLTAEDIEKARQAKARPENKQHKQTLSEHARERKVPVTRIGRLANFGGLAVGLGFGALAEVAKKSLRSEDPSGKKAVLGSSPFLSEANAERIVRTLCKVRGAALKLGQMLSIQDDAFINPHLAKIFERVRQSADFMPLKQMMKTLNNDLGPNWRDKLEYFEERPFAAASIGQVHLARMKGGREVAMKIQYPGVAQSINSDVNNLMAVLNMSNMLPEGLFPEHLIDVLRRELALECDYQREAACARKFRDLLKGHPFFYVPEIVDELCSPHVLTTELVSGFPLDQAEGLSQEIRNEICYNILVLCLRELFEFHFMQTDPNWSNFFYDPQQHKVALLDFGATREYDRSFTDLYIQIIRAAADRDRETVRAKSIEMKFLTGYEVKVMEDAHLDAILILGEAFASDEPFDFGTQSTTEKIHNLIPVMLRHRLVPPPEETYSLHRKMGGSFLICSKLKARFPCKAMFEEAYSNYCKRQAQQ
Chain of Mitogen-activated protein kinase kinase kinase kinase 1 (Homo sapiens) (Q92918 whole entry, looked up): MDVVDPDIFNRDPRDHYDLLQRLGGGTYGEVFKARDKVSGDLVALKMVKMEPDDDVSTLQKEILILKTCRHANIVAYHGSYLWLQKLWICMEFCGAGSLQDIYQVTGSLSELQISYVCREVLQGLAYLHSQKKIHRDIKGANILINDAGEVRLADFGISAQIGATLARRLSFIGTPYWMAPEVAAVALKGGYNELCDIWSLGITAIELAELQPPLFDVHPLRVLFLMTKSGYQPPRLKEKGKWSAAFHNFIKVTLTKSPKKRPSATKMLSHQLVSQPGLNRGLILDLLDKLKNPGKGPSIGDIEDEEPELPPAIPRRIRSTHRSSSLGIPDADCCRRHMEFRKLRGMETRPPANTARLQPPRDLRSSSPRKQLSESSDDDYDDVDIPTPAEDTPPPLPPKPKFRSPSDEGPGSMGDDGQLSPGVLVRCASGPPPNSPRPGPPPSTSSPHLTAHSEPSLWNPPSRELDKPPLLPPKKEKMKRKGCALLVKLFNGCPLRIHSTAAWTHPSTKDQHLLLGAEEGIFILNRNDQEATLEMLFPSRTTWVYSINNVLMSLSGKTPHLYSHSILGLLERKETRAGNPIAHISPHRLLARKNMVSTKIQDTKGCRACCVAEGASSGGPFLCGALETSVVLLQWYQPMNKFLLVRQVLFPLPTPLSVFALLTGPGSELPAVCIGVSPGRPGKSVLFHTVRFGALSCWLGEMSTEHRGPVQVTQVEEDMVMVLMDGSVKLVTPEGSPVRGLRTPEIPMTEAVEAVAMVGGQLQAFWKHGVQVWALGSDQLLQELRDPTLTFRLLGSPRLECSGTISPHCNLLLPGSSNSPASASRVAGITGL
Chain of Insulin receptor-related protein (Homo sapiens) (P14616 27-742 limits assumed): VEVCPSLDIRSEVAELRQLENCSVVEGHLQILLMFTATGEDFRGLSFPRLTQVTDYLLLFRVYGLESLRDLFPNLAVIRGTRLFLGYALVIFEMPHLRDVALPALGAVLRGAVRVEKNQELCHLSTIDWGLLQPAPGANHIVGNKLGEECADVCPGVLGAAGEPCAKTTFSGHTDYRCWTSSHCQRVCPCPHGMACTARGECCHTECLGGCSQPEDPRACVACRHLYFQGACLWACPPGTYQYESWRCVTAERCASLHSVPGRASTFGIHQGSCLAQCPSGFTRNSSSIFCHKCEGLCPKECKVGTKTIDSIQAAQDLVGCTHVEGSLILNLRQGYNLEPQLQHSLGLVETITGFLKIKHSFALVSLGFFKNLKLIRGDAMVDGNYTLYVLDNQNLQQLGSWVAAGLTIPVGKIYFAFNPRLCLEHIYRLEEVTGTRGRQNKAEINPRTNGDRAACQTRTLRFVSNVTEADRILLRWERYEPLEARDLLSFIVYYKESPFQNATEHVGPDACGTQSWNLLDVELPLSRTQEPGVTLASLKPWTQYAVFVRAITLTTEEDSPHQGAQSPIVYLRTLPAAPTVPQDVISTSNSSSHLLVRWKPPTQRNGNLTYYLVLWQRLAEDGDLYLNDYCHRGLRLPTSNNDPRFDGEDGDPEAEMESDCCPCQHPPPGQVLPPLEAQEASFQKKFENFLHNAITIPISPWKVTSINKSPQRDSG
Chain of Insulin receptor-related protein (Homo sapiens) (P14616 747-1297 limits assumed): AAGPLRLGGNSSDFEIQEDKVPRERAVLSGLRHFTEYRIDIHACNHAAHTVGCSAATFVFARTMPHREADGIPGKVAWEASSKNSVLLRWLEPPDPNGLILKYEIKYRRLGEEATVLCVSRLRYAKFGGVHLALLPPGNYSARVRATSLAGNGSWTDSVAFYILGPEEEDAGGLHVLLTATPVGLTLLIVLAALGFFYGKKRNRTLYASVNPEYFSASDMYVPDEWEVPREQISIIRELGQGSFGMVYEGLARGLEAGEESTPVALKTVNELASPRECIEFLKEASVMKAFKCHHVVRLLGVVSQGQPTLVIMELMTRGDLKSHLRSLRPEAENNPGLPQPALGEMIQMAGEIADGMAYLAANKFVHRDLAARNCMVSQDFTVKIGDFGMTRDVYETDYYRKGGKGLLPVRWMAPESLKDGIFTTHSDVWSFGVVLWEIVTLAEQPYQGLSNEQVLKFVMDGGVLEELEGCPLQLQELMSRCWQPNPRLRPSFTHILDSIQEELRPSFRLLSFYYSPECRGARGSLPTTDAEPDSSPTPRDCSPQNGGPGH
Chain of Calcium-dependent protein kinase 1 (Plasmodium falciparum) (P62344 2-524 limits assumed): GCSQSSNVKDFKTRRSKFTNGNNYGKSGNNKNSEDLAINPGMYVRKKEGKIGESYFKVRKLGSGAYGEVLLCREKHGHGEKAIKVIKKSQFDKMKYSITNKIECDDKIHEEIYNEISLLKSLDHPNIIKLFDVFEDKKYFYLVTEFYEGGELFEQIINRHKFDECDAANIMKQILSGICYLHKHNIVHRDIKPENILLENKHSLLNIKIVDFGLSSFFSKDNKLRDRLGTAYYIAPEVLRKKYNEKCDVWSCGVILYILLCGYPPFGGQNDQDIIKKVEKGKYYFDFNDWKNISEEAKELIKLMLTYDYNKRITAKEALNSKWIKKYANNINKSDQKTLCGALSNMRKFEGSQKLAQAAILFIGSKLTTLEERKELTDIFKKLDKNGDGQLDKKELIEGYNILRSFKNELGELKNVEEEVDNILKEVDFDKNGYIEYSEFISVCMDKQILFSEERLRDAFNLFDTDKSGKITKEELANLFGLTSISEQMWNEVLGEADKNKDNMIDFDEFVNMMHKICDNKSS
Chain of MAP/microtubule affinity-regulating kinase 4 (Homo sapiens) (Q96L34 whole entry): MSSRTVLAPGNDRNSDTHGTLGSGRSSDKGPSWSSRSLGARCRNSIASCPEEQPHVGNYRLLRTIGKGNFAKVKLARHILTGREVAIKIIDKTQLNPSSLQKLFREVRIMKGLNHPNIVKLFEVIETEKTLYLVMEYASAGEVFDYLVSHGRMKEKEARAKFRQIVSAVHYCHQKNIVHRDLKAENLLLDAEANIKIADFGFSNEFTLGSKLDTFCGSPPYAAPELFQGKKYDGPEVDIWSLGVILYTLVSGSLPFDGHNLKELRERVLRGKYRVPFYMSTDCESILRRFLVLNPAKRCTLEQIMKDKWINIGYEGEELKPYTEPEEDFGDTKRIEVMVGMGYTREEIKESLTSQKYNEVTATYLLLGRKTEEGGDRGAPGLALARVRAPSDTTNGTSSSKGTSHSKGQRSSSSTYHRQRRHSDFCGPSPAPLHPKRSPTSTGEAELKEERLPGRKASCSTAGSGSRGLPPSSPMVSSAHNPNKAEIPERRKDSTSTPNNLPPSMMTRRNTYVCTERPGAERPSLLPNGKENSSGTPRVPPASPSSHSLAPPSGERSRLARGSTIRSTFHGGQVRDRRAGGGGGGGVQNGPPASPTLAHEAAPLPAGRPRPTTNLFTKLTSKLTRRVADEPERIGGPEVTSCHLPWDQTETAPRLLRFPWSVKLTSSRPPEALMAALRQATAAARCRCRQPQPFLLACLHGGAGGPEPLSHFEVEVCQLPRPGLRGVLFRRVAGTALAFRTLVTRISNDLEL

CCS(=O)(=O)c1cc2cc(C[C@](O)(CC(C)(C)c3ccc(F)cc3C(N)=O)C(F)(F)F)[nH]c2cn1
residual activity [1]: 100% | residual activity [2]: 94% | residual activity [3]: 83% | residual activity [4]: 100% | residual activity [5]: 100% | residual activity [6]: 92% | residual activity [7]: 96% | residual activity [8]: 85% | residual activity [9]: 100% | residual activity [10]: 89% | residual activity [11]: 100% | residual activity [12]: 81% | residual activity [13]: 100% | inhibition [14]: 23.4% | inhibition [15]: -0.48% | residual activity [16]: 91% | residual activity [17]: 96% | residual activity [18]: 100% | residual activity [19]: 91% | residual activity [20]: 100% | residual activity [21]: 83% | residual activity [22]: 93% | residual activity [23]: 100% | residual activity [24]: 90% | residual activity [25]: 96% | residual activity [26]: 93% | residual activity [27]: 97% | residual activity [28]: 100% | residual activity [29]: 84% | residual activity [30]: 100% | residual activity [31]: 100% | residual activity [32]: 100% | residual activity [33]: 100% | residual activity [34]: 81% | residual activity [35]: 100% | residual activity [36]: 100% | inhibition [37]: 13% | residual activity [38]: 100% | residual activity [39]: 100% | residual activity [40]: 100% | residual activity [41]: 92% | residual activity [42]: 100% | residual activity [43]: 80% | residual activity [44]: 94% | residual activity [45]: 85%

CCS(=O)(=O)c1cc2cc(C[C@@](O)(CC(C)(C)c3ccc(F)cc3C(N)=O)C(F)(F)F)[nH]c2cn1
residual activity [1]: 64% | residual activity [2]: 100% | residual activity [3]: 81% | residual activity [4]: 100% | residual activity [5]: 100% | residual activity [6]: 71% | residual activity [7]: 80% | residual activity [8]: 86% | residual activity [9]: 100% | residual activity [10]: 100% | residual activity [11]: 100% | residual activity [12]: 78% | residual activity [13]: 100% | inhibition [14]: 28.3% | inhibition [15]: -8.82% | residual activity [16]: 83% | residual activity [17]: 85% | residual activity [18]: 100% | residual activity [19]: 100% | residual activity [20]: 100% | residual activity [21]: 92% | residual activity [22]: 79% | residual activity [23]: 99% | residual activity [24]: 88% | residual activity [25]: 100% | residual activity [26]: 83% | residual activity [27]: 46% | residual activity [28]: 100% | residual activity [29]: 77% | residual activity [30]: 83% | residual activity [31]: 42% | residual activity [32]: 100% | residual activity [33]: 77% | residual activity [34]: 67% | residual activity [35]: 100% | residual activity [36]: 100% | inhibition [37]: 0.63% | residual activity [38]: 100% | residual activity [39]: 100% | residual activity [40]: 76% | residual activity [41]: 95% | residual activity [42]: 82% | residual activity [43]: 78% | residual activity [44]: 90% | residual activity [45]: 74%
